The record followed here is patent publication US5484934A, “Isothiazole derivatives, a process for production thereof and uses thereof” (Nihon Nohyaku Co., Ltd., priority 1992, dated 1996).

Usually inhibition stands for the share of the control response that was lost under treatment.

One test has as its system Coriolus versicolor. Put plainly: Inhibition of hypha growth on malt extract agar, Coriolus versicolor. The format is cell-based. To be noted: Trametes versicolor, 28±2° C., 2 to 10 days, read-out: Controlling effect (growth inhibition rate) COV.
A further test has as its system Alternaria mali. Briefly: Inhibition of hypha growth on malt extract agar, Alternaria mali. To be noted: read-out: Controlling effect (growth inhibition rate) ALM.
The subject of a further test is Serpula lacrymans. Put plainly: Inhibition of hypha growth on malt extract agar, Serpula lacrymans. To be noted: read-out: Controlling effect (growth inhibition rate) SEL.
For another test, the system named is Aspergillus niger. Briefly: Inhibition of hypha growth on malt extract agar, Aspergillus niger. Particulars: read-out: Controlling effect (growth inhibition rate) ASN.
The subject of a further test is Trichoderma viride. Briefly: Inhibition of hypha growth on malt extract agar, Trichoderma viride. To be noted: read-out: Controlling effect (growth inhibition rate) TRV.
A further test has as its system Fusarium oxysporum. Briefly: Inhibition of hypha growth on malt extract agar, Fusarium oxysporum. Particulars: read-out: Controlling effect (growth inhibition rate) FUO.
For another test, the system named is Rhizopus nigricans. Put plainly: Inhibition of hypha growth on malt extract agar, Rhizopus nigricans. Particulars: Rhizopus stolonifer, read-out: Controlling effect (growth inhibition rate) RHS.
The next test deals with Tyromyces palustris. Briefly: Inhibition of hypha growth on malt extract agar, Tyromyces palustris. To be noted: read-out: Controlling effect (growth inhibition rate) TYP.
The next test concerns Chaetomium globosum. Briefly: Inhibition of hypha growth on malt extract agar, Chaetomium globosum. To be noted: read-out: Controlling effect (growth inhibition rate) CHG.
In test [1] the test system is Cladosporium cladosporioides. Briefly: Inhibition of hypha growth on malt extract agar, Cladosporium cladosporioides. Particulars: read-out: Controlling effect (growth inhibition rate) CLC.
Method: (§1) Each preparation to be tested was added to malt extract agar medium to adjust the concentration to 50 ppm, and the resulting mixture was dispensed into Petri dishes. As an inoculum, a prepared mycerial tuft of each test fungus was punched out together with agar by means of a 4-mm-diameter cork borer and inoculated on medium. The incubation temperature was adjusted to 28±2° .C (or 18±2° C. in the case of Selupula lacrymas).
(§2) The diameter of mycerial tuft was measured 2 to 10 days after the inoculation, and the inhibition rate of hypha growth (the following equation) was measured.

Method for Alternaria mali: as §1, §2
(§3) The controlling effect was evaluated according to the following criterion.
Method for Aspergillus niger: as §1, §2, §3
Method for Chaetomium globosum: as §1, §2, §3
Method for Fusarium oxysporum: as §1, §2, §3
Method for Rhizopus nigricans: as §1, §2
Method for Serpula lacrymans: as §1, §2
Method for Trichoderma viride: as §1, §2
Method for Tyromyces palustris: as §1, §2

Consider `Cc1ccc(S(=O)(=O)c2snc(O)c2C#N)cc1` [Compound 2], for which the inhibition at 50 ppm in the test with Coriolus versicolor fell in the range of 85 to 99%; with Alternaria mali, 55 to 84%; in the test on Serpula lacrymans, 55 to 84%; in the test on Aspergillus niger, 55 to 84%; in the test on Trichoderma viride it was 85 to 99%; in the test on Fusarium oxysporum, 55 to 84%. Besides, the inhibition at 50 ppm lay in the range of 85 to 99% in the test on Rhizopus nigricans, 55 to 84% in the test with Tyromyces palustris, 85 to 99% in the test with Chaetomium globosum and 55 to 84% in test [1].
Consider `N#Cc1c(O)nsc1S(=O)(=O)c1ccc(F)cc1` [Compound 11], for which the inhibition at 50 ppm in the test with Coriolus versicolor is 85 to 99%; in the test on Alternaria mali it was 55 to 84%; in the test on Serpula lacrymans it was 55 to 84%; in the test on Aspergillus niger, 55 to 84%; with Trichoderma viride, 85 to 99%; in the test with Fusarium oxysporum it was 85 to 99%. For the same molecule, the inhibition at 50 ppm lay in the range of 85 to 99% in the test on Rhizopus nigricans, 85 to 99% with Tyromyces palustris, 85 to 99% with Chaetomium globosum and 55 to 84% in test [1].
`C=C(C)COc1nsc([S+](C)[O-])c1C#N` (centres unmarked) [Compound 17]: the inhibition at 50 ppm in the test on Coriolus versicolor is 85 to 99%; in the test on Alternaria mali, 100%; with Serpula lacrymans, 100%; in the test with Aspergillus niger, 100%; with Trichoderma viride, 100%; in the test with Fusarium oxysporum, 100%. Besides, the inhibition at 50 ppm (in the test on Rhizopus nigricans; in the test on Tyromyces palustris; with Chaetomium globosum; in test [1]) was 100% in each case.
On to `CCOC(=O)C[S+]([O-])c1snc(OC)c1C#N` (centres unmarked) [Compound 18], for which the inhibition at 50 ppm was 100% in the test on Coriolus versicolor; 85 to 99% with Alternaria mali; 100% with Serpula lacrymans; 100% in the test on Aspergillus niger; 100% in the test on Trichoderma viride; 85 to 99% in the test on Fusarium oxysporum. For the same molecule, the inhibition at 50 ppm (in the test on Rhizopus nigricans; in the test on Tyromyces palustris; with Chaetomium globosum; in test [1]) was 100% each time.
As to `CCC(C)S(=O)(=O)c1snc(OC(F)F)c1C#N` (centres unmarked) [Compound 28, 3-difluoromethoxy-4-cyano-5-s-butylsulfonylisothiazole], the inhibition at 50 ppm with Coriolus versicolor was 100%; with Alternaria mali it was 100%; in the test on Serpula lacrymans, 100%; in the test with Aspergillus niger, 85 to 99%; with Trichoderma viride, 100%; with Fusarium oxysporum it was 100%. The inhibition at 50 ppm was 100% with Rhizopus nigricans, 100% with Tyromyces palustris, 85 to 99% in the test on Chaetomium globosum and 85 to 99% in test [1].
On to `CC(C)(C)S(=O)(=O)c1snc(OC(F)F)c1C#N` [Compound 29], for which the inhibition at 50 ppm with Coriolus versicolor was 100%; in the test with Alternaria mali, 85 to 99%; in the test on Serpula lacrymans it was 85 to 99%; in the test on Aspergillus niger it was 85 to 99%; in the test with Trichoderma viride it was 100%; in the test with Fusarium oxysporum, 85 to 99%. The inhibition at 50 ppm with Rhizopus nigricans is 100%; with Tyromyces palustris it was 100%; with Chaetomium globosum it was 100%; in test [1] it was 85 to 99%.
For the molecule `N#Cc1c(OC(F)F)nsc1S(=O)(=O)C1CCCC1` [Compound 30, 3-difluoromethoxy-4-cyano-5-cyclopentylsulfonylisothiazole], the inhibition at 50 ppm is 100% with Coriolus versicolor; 85 to 99% in the test with Alternaria mali; 85 to 99% with Serpula lacrymans; 85 to 99% in the test with Aspergillus niger; 100% in the test on Trichoderma viride; 85 to 99% with Fusarium oxysporum. In addition, the inhibition at 50 ppm in the test with Rhizopus nigricans is 100%; in the test on Tyromyces palustris it was 100%; in the test on Chaetomium globosum, 100%; in test [1], 85 to 99%.
`CCCOc1nsc(S(C)(=O)=O)c1C#N` [Compound 43]: the inhibition at 50 ppm in the test on Coriolus versicolor was 100%; in the test with Alternaria mali, 85 to 99%; in the test with Serpula lacrymans, 100%; in the test on Aspergillus niger, 85 to 99%; in the test on Trichoderma viride, 85 to 99%; with Fusarium oxysporum, 85 to 99%. Moreover, the inhibition at 50 ppm in the test with Rhizopus nigricans was 100%; in the test with Tyromyces palustris it was 100%; in the test with Chaetomium globosum, 85 to 99%; in test [1], 100%.
As for `CC=CCOc1nsc(S(C)(=O)=O)c1C#N` [Compound 57], the inhibition at 50 ppm in the test on Coriolus versicolor is 100%; in the test on Alternaria mali, 85 to 99%; in the test with Serpula lacrymans it was 100%; in the test with Aspergillus niger it was 85 to 99%; with Trichoderma viride, 85 to 99%; in the test with Fusarium oxysporum, 100%. Besides, the inhibition at 50 ppm was 85 to 99% in the test on Rhizopus nigricans, 100% in the test with Tyromyces palustris, 85 to 99% in the test on Chaetomium globosum and 100% in test [1].
Consider `CCS(=O)(=O)c1snc(OCC=CCl)c1C#N` [Compound 59], for which the inhibition at 50 ppm with Coriolus versicolor, with Alternaria mali, in the test on Serpula lacrymans, in the test on Aspergillus niger, in the test with Trichoderma viride and in the test on Fusarium oxysporum was 100% in each case. Moreover, the inhibition at 50 ppm (with Rhizopus nigricans; with Tyromyces palustris; with Chaetomium globosum; in test [1]) was 100% each time.
Turning to `CCOCCOc1nsc(S(C)(=O)=O)c1C#N` [Compound 73], the inhibition at 50 ppm with Coriolus versicolor is 100%; in the test with Alternaria mali it was 85 to 99%; with Serpula lacrymans, 100%; in the test with Aspergillus niger, 85 to 99%; in the test on Trichoderma viride, 85 to 99%; with Fusarium oxysporum, 100%. The inhibition at 50 ppm was 100% in the test with Rhizopus nigricans, 100% in the test with Tyromyces palustris, 100% in the test on Chaetomium globosum and 85 to 99% in [1].
Turning to `CC(C)S(=O)(=O)c1snc(OC[Si](C)(C)C)c1C#N` [Compound 77, 3-trimethylsilylmethoxy-4-cyano-5-isopropylsulfonylisothiazole], the inhibition at 50 ppm is 100% in the test with Coriolus versicolor; 85 to 99% in the test on Alternaria mali; 100% in the test with Serpula lacrymans; 85 to 99% in the test with Aspergillus niger; 100% with Trichoderma viride; 85 to 99% in the test on Fusarium oxysporum. For the same molecule, the inhibition at 50 ppm with Rhizopus nigricans is 100%; in the test with Tyromyces palustris it was 85 to 99%; in the test with Chaetomium globosum, 100%; in test [1] it was 85 to 99%.
Turning to `COC(=O)CS(=O)(=O)c1snc(OC)c1C#N` [Compound 81], the inhibition at 50 ppm in the test on Coriolus versicolor, with Alternaria mali, in the test with Serpula lacrymans, with Aspergillus niger, in the test with Trichoderma viride and in the test with Fusarium oxysporum was 100% throughout. Besides, the inhibition at 50 ppm (with Rhizopus nigricans; in the test on Tyromyces palustris; in the test on Chaetomium globosum; in [1]) was 100% throughout.
Turning to `COc1ccc(S(=O)(=O)c2snc(OC)c2C#N)cc1` [Compound 94], the inhibition at 50 ppm in the test with Coriolus versicolor, with Alternaria mali, in the test on Serpula lacrymans, in the test with Aspergillus niger, with Trichoderma viride and with Fusarium oxysporum was 100% throughout. Moreover, the inhibition at 50 ppm (in the test on Rhizopus nigricans; in the test on Tyromyces palustris; with Chaetomium globosum; in [1]) was 100% each time.
Regarding `COc1nsc(S(=O)(=O)c2ccc(F)cc2)c1C#N` [Compound 96], the inhibition at 50 ppm in the test with Coriolus versicolor, in the test with Alternaria mali, with Serpula lacrymans, in the test on Aspergillus niger, with Trichoderma viride and with Fusarium oxysporum was 100% throughout. The inhibition at 50 ppm (with Rhizopus nigricans; in the test on Tyromyces palustris; with Chaetomium globosum; in test [1]) was 100% in each case.
For the molecule `COc1nsc(S(=O)(=O)c2c(C)cc(C)cc2C)c1C#N` [Compound 97], the inhibition at 50 ppm was 100% with Coriolus versicolor; 100% in the test with Alternaria mali; 100% in the test on Serpula lacrymans; 85 to 99% in the test on Aspergillus niger; 100% in the test with Trichoderma viride; 100% with Fusarium oxysporum. Also, the inhibition at 50 ppm is 100% with Rhizopus nigricans, 100% in the test on Tyromyces palustris, 100% in the test with Chaetomium globosum and 85 to 99% in test [1].
With `CCOc1nsc(S(=O)(=O)c2ccc(Cl)cc2)c1C#N` [Compound 100], the inhibition at 50 ppm in the test with Coriolus versicolor, in the test on Alternaria mali, in the test with Serpula lacrymans, in the test on Aspergillus niger, with Trichoderma viride and in the test with Fusarium oxysporum was 100% throughout. In addition, the inhibition at 50 ppm (in the test on Rhizopus nigricans; in the test on Tyromyces palustris; in the test on Chaetomium globosum; in test [1]) was 100% each time.
